Results on 8 molecules are retold here after ChEMBL document CHEMBL1201862, “PubChem BioAssay data set” (2004).

SMILES strings stand for the structures. Activity calls are given as the source filed them.

Assay [1] in a line: inhibitors of Bluetongue virus cytopathic effect, confirmation, arbovirus, BSR cells (AID 1250).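 Further: protection from viral cytopathic effect measured as cell viability by ATP luminescence.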 It is filed as functional.
Assay [2] concerns HEK293. Kind of assay: cells. It counts as functional, cell-based. The following applies: Homo sapiens.
Assay [3] relates to HEK293. Kind of assay: NOD2 signaling inhibitors in MDP-stimulated cells, cell-based, uHTS, luminescence (AID 2001). It is filed as functional. The following applies: Homo sapiens.
Assay [4] deals with T1, Corticotropin-releasing factor receptor 2/Corticotropin-releasing factor-binding protein (Homo sapiens, UniProt P24387+Q13324).
T1 sequence (Q13324 whole entry): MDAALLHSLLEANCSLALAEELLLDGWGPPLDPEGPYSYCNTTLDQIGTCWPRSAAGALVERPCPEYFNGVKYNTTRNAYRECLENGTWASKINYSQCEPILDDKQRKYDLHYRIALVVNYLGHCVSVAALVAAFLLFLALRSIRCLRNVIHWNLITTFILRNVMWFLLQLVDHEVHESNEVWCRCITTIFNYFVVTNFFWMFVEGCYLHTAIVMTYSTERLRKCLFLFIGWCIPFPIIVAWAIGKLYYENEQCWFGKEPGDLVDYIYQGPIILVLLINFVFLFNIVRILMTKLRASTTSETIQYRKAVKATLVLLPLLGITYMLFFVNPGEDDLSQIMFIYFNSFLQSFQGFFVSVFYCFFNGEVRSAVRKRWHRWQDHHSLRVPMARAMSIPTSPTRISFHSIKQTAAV
T1 sequence (P24387 whole entry): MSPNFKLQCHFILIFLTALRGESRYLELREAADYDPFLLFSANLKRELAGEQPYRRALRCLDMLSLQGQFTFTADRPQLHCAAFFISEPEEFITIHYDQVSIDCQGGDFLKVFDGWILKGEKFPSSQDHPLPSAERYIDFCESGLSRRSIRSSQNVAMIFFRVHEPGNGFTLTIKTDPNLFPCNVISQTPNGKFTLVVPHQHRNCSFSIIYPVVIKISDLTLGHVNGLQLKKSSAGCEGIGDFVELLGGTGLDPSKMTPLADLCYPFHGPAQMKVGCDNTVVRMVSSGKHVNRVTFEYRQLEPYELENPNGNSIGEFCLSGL
Nature of the assay: activators of CRF receptor 2 with binding protein – uHTS hits, confirmation (AID 602473). It is filed as functional. The following applies: read-out: EC50_Mean.

The target of assay [5] is T2, Calpain-2 catalytic subunit (Sus scrofa, UniProt P43367).
T2 sequence (P43367 whole entry): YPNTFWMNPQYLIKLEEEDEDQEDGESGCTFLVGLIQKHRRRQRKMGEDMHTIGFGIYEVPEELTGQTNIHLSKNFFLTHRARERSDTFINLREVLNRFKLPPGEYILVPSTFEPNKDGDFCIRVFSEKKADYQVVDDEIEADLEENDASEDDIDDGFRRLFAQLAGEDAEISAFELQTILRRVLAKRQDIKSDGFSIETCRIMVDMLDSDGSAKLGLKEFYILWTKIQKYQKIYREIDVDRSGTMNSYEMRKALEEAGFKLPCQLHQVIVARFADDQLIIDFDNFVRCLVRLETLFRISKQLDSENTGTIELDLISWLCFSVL
Nature of the assay: pig calpain II inhibitor potency, dose response, biochemical, fluorogenic peptide substrate (AID 1420). It counts as functional.

Assay [6] can be described thus: cytotoxicity in HEK-293T cells, dose response, cytotoxicity control for TCR NF-kB inhibitor project, luminescence, T-cell screen hits (AID 489026).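 Further: cells exposed to compound about 14 hours before the viability readout.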 It counts as functional, cell-based.
Assay [7] deals with T1, Corticotropin-releasing factor receptor 2/Corticotropin-releasing factor-binding protein. Nature of the assay: Dose Response confirmation of uHTS hits for small molecule antagonists of the CRF-binding protein and CRF-R2 receptor complex. It counts as functional. The following applies: read-out: IC50_Mean.
In a further assay the target is Tumor necrosis factor (Homo sapiens, UniProt P01375). Kind of assay: TNFa-triggered NF-kB activation inhibitors, SAR follow-up, cell-based, revised (AID 2337). It is filed as functional.
In assay [8] the test system is HEK293. Nature of the assay: cells. It counts as functional, cell-based. The following applies: Homo sapiens. This is another data set of the same source.
The test system of assay [9] is HEK293. Nature of the assay: NOD1 signaling inhibitors, primary screen, cell-based, luminescence, uHTS (AID 1578). It counts as functional. The following applies: Homo sapiens.
The test system of assay [10] is HEK293. Kind of assay: cells. The following applies: Homo sapiens.
The target of assay [11] is T3, Nucleotide-binding oligomerization domain-containing protein 1 (Homo sapiens, UniProt Q9Y239).
T3 sequence (Q9Y239 whole entry): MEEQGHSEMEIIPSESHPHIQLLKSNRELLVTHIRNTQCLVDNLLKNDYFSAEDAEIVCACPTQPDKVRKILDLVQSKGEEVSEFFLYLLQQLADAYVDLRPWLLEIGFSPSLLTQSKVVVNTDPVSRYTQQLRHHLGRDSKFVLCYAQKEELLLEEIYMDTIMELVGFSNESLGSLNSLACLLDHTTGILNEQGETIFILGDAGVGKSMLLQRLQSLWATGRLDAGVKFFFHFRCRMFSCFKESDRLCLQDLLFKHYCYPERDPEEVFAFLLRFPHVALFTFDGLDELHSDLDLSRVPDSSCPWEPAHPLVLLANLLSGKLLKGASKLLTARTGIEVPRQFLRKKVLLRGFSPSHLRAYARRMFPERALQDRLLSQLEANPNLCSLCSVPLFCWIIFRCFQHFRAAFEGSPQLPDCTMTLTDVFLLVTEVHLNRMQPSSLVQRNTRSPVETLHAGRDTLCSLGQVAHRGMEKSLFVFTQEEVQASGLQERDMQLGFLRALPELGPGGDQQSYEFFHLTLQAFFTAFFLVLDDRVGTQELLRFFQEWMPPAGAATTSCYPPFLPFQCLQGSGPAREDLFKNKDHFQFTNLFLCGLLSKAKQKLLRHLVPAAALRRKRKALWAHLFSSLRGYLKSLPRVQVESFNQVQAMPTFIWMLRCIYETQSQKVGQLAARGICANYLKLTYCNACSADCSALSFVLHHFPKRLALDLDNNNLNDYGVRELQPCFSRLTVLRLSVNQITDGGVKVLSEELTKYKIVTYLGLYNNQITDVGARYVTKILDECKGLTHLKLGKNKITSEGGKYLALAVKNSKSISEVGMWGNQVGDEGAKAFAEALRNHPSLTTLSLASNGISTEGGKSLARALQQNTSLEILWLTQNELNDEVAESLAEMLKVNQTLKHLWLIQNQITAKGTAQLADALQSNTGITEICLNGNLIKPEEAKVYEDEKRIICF
Kind of assay: NOD1 signaling inhibitors, SAR follow-up, revised (AID 2333). It is filed as functional.

In the next assay the target is T4, Aspartyl aminopeptidase (Plasmodium falciparum 3D7, UniProt Q8I2J3).
T4 sequence (Q8I2J3 whole entry): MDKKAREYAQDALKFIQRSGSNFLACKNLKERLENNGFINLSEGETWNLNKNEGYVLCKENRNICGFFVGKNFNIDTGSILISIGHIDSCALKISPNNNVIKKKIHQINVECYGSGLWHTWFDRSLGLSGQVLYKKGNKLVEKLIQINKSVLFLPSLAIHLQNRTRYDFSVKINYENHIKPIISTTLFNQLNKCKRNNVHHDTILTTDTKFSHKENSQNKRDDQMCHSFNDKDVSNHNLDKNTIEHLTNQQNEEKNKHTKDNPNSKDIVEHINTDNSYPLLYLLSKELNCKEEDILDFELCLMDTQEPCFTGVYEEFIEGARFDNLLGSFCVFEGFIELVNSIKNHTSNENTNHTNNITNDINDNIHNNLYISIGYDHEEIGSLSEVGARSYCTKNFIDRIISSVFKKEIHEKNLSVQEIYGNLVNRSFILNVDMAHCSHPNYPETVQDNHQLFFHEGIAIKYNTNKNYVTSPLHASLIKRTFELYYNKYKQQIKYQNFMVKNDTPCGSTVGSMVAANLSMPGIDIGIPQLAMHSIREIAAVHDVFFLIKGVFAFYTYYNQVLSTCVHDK
Nature of the assay: Counterscreen for inhibitors of M1 and M17 aminopeptidases: QFRET-based biochemical high throughput dose response assay for inhibitors of the Plasmodium falciparum M18 Aspartyl Aminopeptidase (PFM18AAP). [Related PubChem assays: 1619 (Screening assay (M17LAP inhibitors).), 1445 (Screening assay (M1AAP inhibitors).)].

The next assay has as its target Procathepsin L (Homo sapiens, UniProt P07711). Kind of assay: cathepsin L inhibitors, dose response, counter-screen for M1/M17 aminopeptidase inhibitor project, biochemical, QFRET, 1536-well (AID 2214).
For another assay, the target named is T5, Leucine aminopeptidase (Plasmodium falciparum 3D7, UniProt Q8IL11).
T5 sequence (Q8IL11 whole entry): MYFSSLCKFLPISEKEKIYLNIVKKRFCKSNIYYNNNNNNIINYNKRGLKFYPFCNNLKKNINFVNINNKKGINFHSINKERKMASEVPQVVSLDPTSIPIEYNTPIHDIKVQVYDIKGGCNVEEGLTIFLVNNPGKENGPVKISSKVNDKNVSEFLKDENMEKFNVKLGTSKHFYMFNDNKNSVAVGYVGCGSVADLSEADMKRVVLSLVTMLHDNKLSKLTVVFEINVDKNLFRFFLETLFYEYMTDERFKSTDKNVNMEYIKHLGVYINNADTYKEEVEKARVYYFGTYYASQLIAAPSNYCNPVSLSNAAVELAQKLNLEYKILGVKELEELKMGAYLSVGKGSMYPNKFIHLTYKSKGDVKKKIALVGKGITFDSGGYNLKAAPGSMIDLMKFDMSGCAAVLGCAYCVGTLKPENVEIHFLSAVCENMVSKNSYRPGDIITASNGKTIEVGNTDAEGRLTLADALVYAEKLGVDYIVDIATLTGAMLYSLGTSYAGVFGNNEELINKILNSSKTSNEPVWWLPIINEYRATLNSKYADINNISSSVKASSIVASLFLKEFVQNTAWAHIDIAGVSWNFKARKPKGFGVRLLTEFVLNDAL
Nature of the assay: P. falciparum M17LAP inhibitors, primary screen, biochemical, fluorogenic H-Leu-NHMec substrate, 1536-well (AID 1619). It counts as functional.

The nature of assay [12]: cytotoxicity toward NIH3T3 fibroblasts, dose response, counter-screen, cell-based, ATP luminescence, mouse fibroblasts (AID 2010).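 Further: cells exposed to compound for about 90 hours before reading.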 It is filed as functional.
Assay [13] is described as follows: inhibitors of intracellular T. cruzi replication, confirmation, NIH3T3 host cells, beta-gal luminescence (AID 2044).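 Further: intracellular parasites grown in NIH/3T3 mouse fibroblasts as host cells; luminescent beta-galactosidase reporter signal from transgenic T. cruzi replicating inside host cells; inhibitors lower the luminescence signal.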 It is filed as functional, cell-based.

Sequence of Procathepsin L (P07711 whole entry): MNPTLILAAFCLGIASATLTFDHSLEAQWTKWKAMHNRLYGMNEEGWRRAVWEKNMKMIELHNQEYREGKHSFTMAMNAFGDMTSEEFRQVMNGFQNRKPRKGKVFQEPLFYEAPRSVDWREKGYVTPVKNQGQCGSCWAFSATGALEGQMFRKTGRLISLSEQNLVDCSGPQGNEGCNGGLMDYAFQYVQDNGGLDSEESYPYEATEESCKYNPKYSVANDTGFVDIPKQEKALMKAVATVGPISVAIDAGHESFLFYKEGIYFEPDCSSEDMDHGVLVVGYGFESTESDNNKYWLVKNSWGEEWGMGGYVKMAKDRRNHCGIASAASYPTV
Sequence of Tumor necrosis factor (P01375 whole entry): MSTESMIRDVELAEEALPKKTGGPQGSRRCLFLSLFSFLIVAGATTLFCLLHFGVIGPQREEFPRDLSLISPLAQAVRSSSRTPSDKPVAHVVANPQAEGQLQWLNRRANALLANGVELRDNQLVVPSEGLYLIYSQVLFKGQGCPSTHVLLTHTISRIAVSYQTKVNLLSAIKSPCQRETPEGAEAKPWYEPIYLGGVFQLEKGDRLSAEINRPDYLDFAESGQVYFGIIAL

`CC1CCCCN1c1nnc(NC(=O)c2cc(-c3ccc(Br)cc3)on2)s1` (stereo not drawn): the IC50 in [1] was 29 µM (active).
In the case of `O=C(Nc1ccc(Oc2cccnc2)nc1)c1ccc(C(F)(F)F)cc1`, the IC50 in the assay on HEK293 [2] is 4.32 µM (active); with HEK293 [3], 8.57 µM (active); in assay [5], 48.1 µM (not active); in assay [6], > 80 µM (inactive); in assay [7], > 47.1 µM (inactive); on Tumor necrosis factor, 2.79 µM (active). Further, the results for the IC50 (with HEK293 [8]; in the assay on HEK293 [10]; in assay [11]) were > 20 µM (inactive), > 20 µM (inactive) and 2.26 µM (active), respectively. The figures for the EC50 (in assay [4]; with HEK293 [9]) were > 53 µM (inactive) and 2.4 µM (active), respectively.
On to `O=C(CSc1nccc(=O)[nH]1)Nc1ccc(F)c(Cl)c1`, for which the IC50 on Aspartyl aminopeptidase was > 73.5 µM (not active); at Procathepsin L, > 59.6 µM (not active); on Leucine aminopeptidase, 6.03 µM (active).
For the molecule `S=C(NCc1ccccc1)N1CCn2cccc2C1c1cccnc1` (stereo not drawn), the EC50 in [12] was > 60 µM (inconclusive); in [13], 2.95 µM (active). In addition, the IC50 in assay [1] is 22.1 µM (active).
`CCc1ccc(Nc2nnc(SC3CCOC3=O)s2)cc1` (stereo not drawn): the IC50 on Aspartyl aminopeptidase was > 73.5 µM (not active); against Procathepsin L it was > 59.6 µM (not active); at Leucine aminopeptidase it was 2.64 µM (active).
The corresponding values for `COC(=O)c1c(-c2ccco2)csc1NC(=O)C1CC=CCC1C(=O)O` (stereo not drawn) are > 73.5 µM (not active), > 59.6 µM (not active) and 1.39 µM (active).
The corresponding values for `COc1ccc(OC)c(NC(=O)C2C(C(=O)O)C3(Cl)C(Cl)=C(Cl)C2(Cl)C3(Cl)Cl)c1` (stereo not drawn) are > 73.5 µM (not active), > 59.6 µM (not active) and < 1 µM (active).
Turning to `COC(=O)/C=C/c1sc2nc(C)cc(C)c2c1/N=C/N(C)C`, in assay [1], the IC50 was 34.4 µM (active).
